Common to all, as to format: cell-based
Assay [1] concerns SW1353 cells. The experiment in a line: Mitochondrial calcium rise in SW1353 chondrocytes, IL-1β osteoarthritic model (mitochondrial aequorin). The conditions noted are these: SW1353 cells treated with IL-1β vs control. How it is done:
To test the effect of oleuropein (or oleuropein aglycone), quercetin and their combination in living cells, the inventors measured mitochondrial calcium elevation in HeLa cells. HeLa cells were purchased from ATCC. HeLa cells were seeded in 96-well plates at a density of 50000 cells per well in minimal essential medium (DMEM, Gibco), high glucose, +10% fetal calf serum. Mitochondrial calcium measurements were carried out using Hela cells infected with the adenovirus (from Sirion biotech) expressing the mitochondrially targeted calcium sensor mitochondrial mutated aequorin (Montero et al., 2004). […] Luminescence was measured at the FLIPR Tetra Aequorin (Molecular Devices). […] Calibration of the luminescence data into calcium concentration was carried out using an algorithm, as described previously (Alvarez & Montero, 2002). Custom module analysis based on Excel (Microsoft) and GraphPad Prism 7.02 (Graph Pad) software was used for quantification.
To validate the effect of the pro-inflammatory cytokine Interleukin-1β as an osteoarthritis-mimetic in a chondrocyte cellular model and to test the effect of the mitochondrial calcium uniporter (MCU) ablation on chondrocyte function, the inventors measured chondrocyte function and mitochondrial function in SW1353 cells. […]

In assay [2] the test system is SW1353 cells. The assay is described as follows: Chondrocyte function by western blot (collagen-IIα1, MMP3, MMP13) in SW1353 cells. The conditions noted are these: SW1353 cells treated with IL-1β 24 h or 48 h vs control. How it is done: To validate the effect of the pro-inflammatory cytokine Interleukin-1β as an osteoarthritis-mimetic in a chondrocyte cellular model and to test the effect of the mitochondrial calcium uniporter (MCU) ablation on chondrocyte function, the inventors measured chondrocyte function and mitochondrial function in SW1353 cells. SW1353 cells were purchased from ATCC. SW1353 cells were seeded in 96-well plates at a density of 10 000 cells per well […] (for mitochondrial calcium measurement) or at a density of 1 000 000 cells (for western blots). Cells were cultured in […] (DMEM, Gibco), high glucose, with 10% fetal calf serum and 1% Penicillin-Streptomycin.
To assess chondrocyte function, the expression of collagen-IIα1, aggrecan, metalloproteinase-3 and -13 (MMP3 and MMP13), were analyzed by western blotting. SW1353 cells were treated or not with 10 ng/ml Interleukin-1b for 24 h or 48 h. Protein extracts were prepared in an appropriate buffer containing 150 mM NaCl, 1.0% IGEPAL CA-630, 0.5% sodium deoxycholate, 0.1% SDS, 50 mM Tris, pH 8.0, Complete EDTA-free protease inhibitor mixture (Roche), 1 mM PMSF, 1 mM NaVO3, 5 mM NaF and 3 mM β-glycerophosphate and phosphatase inhibitors (Roche). 40 μg of total proteins were loaded, according to BCA quantification. Proteins were separated by SDS-PAGE electrophoresis, in commercial 4-12% acrylamide gels (Thermo Fisher Scientific) and transferred onto PVDF membranes (Thermo Fisher Scientific) by wet electrophoretic transfer. Blots were blocked 1 hour at RT with 5% bovine serum albumin (Sigma-Aldrich) in TBS-tween (0.5M Tris, 1.5M NaCl, 0.01% Tween) solution and incubated overnight at 4° C. with primary antibodies. Secondary antibodies were incubated 1 hr at RT. The following antibodies were used: anti-collagen-II al (1:1000, Abcam), anti-aggrecan (1:1000, Abcam), anti-MMP-3 (1:1000, Abcam), anti-MMP-13 (1:1000, Abcam). […] Then the content collagen-IIα1, aggrecan, MMP3 and MMP13 were quantified with densitometry and normalized on the content of GAPDH (detected with anti-GAPDH, 1:5000, Cell Signaling)
Background: In western blotting, separated proteins are transferred to a membrane and probed.

Assay [3] relates to SW1353 cells. The assay is described as follows: Cell death, Annexin-V positive cells (IncuCyte) in SW1353 cells. The conditions noted are these: after 5 days of IL-1β treatment vs control. How it is done: To quantify the effect of Interleukin-1β on cell death in SW1353 cells, kinetic experiments of apoptosis were performed with the IncuCyte ZOOM instrument (Essen Bioscience, Ann Arbor, MI, USA). Cells were seeded at 50% confluence in 96-well-plate format in DMEM medium. After 24 h, cells were incubated with IncuCyte Annexin-V Green (4642), according to supplier's instructions and treated with IL-1β. Four images per well were collected at the indicated time using a 10× objective and bandwidth filters (Ex: 440/80 nm; Em: 504/44 nm). Data were exported as area (μm2) per well covered by Annexin-V positive objects and normalized for the total area covered by the cells.

Assay [4] deals with SW1353 cells. The experiment in a line: Mitochondrial membrane potential (JC-10 ratio fluorescence 590/525 nm) in SW1353 cells. The conditions noted are these: after 24 h of IL-1β vs control. How it is done:
To measure mitochondrial membrane potential, SW1353 cells were seeded in 96-well plates at a density of 8000 cells per well in Growth medium (DMEM high glucose, Gibco) with 10% fetal calf serum. Then, cells were loaded with the fluorescent mitochondrial membrane potential sensor JC-10. Fluorescence was acquired with MetaXpress Confocal (Molecular Devices) at following emission wavelengths: 590 nm (excitation at 540 nm) and 525 nm (excitation 490 nm), according to supplier's instructions. The ratio fluorescence at 590 nm/525 nm is proportional to change in the mitochondrial membrane potential.

Take “IL-1β: pro-inflammatory cytokine Interleukin-1β used as an osteoarthritis-mimetic in SW1353 chondrocytes”: the “mitochondrial Ca2+ rise stimulated by agonist (histamine)” value in the assay on SW1353 cells [1] is on record as “decrease”. For the same substance, in the assay with SW1353 cells [2], the collagen-IIα1 content entry is recorded as “strongly decreased”, the “expression of MMP3” value was “increased” and the “expression of MMP13” value is recorded as “increased”. The “Annexin-V positive cells (cell death)” value in the assay on SW1353 cells [3] was “significantly increased”. The “ratio fluorescence (590/525 nm) of mitochondrial membrane potential sensor JC10” value in the assay with SW1353 cells [4] is reported as “significantly decreases”.
